Laboratory results as given in publication PMC3092152 (Molecular oral microbiology, 2011).
Where no end group is shown, it is not given here.

B1: lysozyme: host protein tested in preliminary experiments against 16 S. mutans strains (protein, UniProt P61626 19-148, looked up)
Lysozyme C: KVFERCELARTLKRLGMDGYRGISLANWMCLAKWESGYNTRATNYNAGDRSTDYGIFQINSRYWCNDGKTPGAVNACHLSCSALLQDNIADAVACAKRVVRDPQGIRAWVAWRNRCQNRDVRQYVQGCGV

tested on: S. mutans clinical strains; test: alamarBlue antimicrobial susceptibility test; assay type: cell-based, Streptococcus mutans; conditions: preliminary experiments; 16 S. mutans strains; peptide concentrations 20 μg/ml or below

Molecule	susceptibility of S. mutans strains to the peptide
HBD-1: human β-defensin, salivary cationic antimicrobial peptide (DHYNCVSSGGQCLYSACPIFTKIQGTCYRGKAKCCK; ends and bridges not checked; cysteine pairing not given here; UniProt P60022 33-68, looked up)	no susceptibility
histatin-5	no susceptibility
B1	no susceptibility
